Earlier results, collected in patent publication US20040192658A1, “Compositions and methods of using collajolie” (Angiotech International AG, priority 2002, published 2004).

T1: interstitial collagenase (Homo sapiens, UniProt P03956)
T1 sequence (P03956 100-469): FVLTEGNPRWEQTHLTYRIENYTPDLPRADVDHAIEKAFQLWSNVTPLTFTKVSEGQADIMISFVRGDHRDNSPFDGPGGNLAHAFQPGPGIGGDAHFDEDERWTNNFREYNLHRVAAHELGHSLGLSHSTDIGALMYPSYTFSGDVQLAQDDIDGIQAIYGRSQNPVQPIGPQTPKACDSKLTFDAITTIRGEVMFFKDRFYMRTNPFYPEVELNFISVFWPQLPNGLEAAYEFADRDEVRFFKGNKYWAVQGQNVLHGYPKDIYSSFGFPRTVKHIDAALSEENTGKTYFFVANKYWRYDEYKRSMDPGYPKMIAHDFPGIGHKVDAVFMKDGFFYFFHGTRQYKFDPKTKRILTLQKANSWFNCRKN

T2: gelatinase A (Homo sapiens, UniProt P08253)
T2 sequence (P08253 110-660): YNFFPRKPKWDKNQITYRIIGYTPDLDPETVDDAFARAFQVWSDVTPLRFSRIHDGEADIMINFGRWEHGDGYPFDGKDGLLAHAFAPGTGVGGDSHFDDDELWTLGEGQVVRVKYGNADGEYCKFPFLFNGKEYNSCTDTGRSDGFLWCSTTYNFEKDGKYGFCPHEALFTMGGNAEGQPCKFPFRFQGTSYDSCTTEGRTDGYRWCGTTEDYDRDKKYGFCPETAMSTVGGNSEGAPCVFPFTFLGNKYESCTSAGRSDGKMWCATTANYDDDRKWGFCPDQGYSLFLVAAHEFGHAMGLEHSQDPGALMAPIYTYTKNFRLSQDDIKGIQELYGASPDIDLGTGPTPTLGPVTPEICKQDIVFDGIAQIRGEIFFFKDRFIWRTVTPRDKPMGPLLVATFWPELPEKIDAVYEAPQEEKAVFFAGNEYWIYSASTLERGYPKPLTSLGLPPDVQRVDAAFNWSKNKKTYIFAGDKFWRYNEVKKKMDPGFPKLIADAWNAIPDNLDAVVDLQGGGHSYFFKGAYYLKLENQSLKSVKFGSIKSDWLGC

T3: collagenase 1 (Homo sapiens, UniProt P03956)
T3 sequence (P03956 100-469): T1 sequence (P03956 100-469)

B1: TIMP-3: 21 kD Tissue Inhibitor of Matrix Metalloproteinase (protein, UniProt P35625 24-211, looked up)
Metalloproteinase inhibitor 3: CTCSPSHPQDAFCNSDIVIRAKVVGKKLVKEGPFGTLVYTIKQMKMYRGFTKMPHVQYIHTEASESLCGLKLEVNKYQYLLTGRVYDGKMYTGLCNFVERWDQLTLSQRKGLNYRYHLGCNCKIKSCYYLPCFVTSKNECLWTDMLSNFGYPGYQSKHYACIRQKGGYCSWYRGWAPPDKSIINATDP

What was measured:
interstitial collagenase = target: T1, interstitial collagenase; details: compared with TIMP-2
gelatinase A = target: T2, gelatinase A
gelatinase B = gelatinase B (Homo sapiens, UniProt P14780)
collagenase 1 = target: T3, collagenase 1

Chain of gelatinase B (P14780 94-707, species assumed): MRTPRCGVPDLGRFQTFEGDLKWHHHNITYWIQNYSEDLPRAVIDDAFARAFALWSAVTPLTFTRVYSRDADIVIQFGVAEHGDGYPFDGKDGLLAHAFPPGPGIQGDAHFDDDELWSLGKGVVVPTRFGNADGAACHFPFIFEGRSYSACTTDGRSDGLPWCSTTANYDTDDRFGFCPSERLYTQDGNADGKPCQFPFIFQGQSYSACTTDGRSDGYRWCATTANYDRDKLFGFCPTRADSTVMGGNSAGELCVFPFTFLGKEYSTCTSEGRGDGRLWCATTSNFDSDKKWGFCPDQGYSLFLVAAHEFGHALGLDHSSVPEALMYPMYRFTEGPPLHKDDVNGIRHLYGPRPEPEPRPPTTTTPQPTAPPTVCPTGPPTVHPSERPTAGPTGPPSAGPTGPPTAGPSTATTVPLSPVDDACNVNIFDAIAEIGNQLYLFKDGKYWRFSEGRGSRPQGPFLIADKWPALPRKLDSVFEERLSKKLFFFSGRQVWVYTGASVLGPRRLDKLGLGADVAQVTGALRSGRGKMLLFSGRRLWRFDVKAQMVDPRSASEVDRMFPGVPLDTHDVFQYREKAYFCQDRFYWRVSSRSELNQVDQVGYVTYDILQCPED

Molecule | well tolerated daily dosage [mg] | established (well) tolerated single dose [mg] | other results
CNC(=O)[C@@H](NC(=O)[C@H](CC(C)C)[C@H](O)C(=O)NO)C(C)(C)C |  |  | established well tolerated single daily dose (single daily dose): 50 mg
CN(C)[C@@H]1C(O)=C(C(N)=O)C(=O)[C@@]2(O)C(O)=C3C(=O)c4c(O)cccc4[C@@](C)(O)C3C[C@@H]12 (stereo in doubt) [tetracycline, 4-(dimethylamino)-1,4,4a,5,5a,6,11,12a-octahydro-3,6,10,12,12a-pentahydroxy-6-methyl-1,11-dioxo-2-naphthacenecarboxamide] | 1000 | 1000 | 
CN1C(=O)N(C[C@H](C(=O)NO)[C@@H](CC2CCCC2)C(=O)N2CCCCC2)C(=O)C1(C)C [TROCADE] |  | 150 | 
C[C@H]1c2cccc(O)c2C(=O)C2=C(O)[C@]3(O)C(=O)C(C(N)=O)=C(O)[C@@H](N(C)C)[C@@H]3[C@@H](O)[C@@H]21 [doxycycline, α-6-deoxy-5-hydroxy-tetracycline] | 100 | 200 | 
CN(C)c1ccc(O)c2c1C[C@H]1C[C@H]3[C@H](N(C)C)C(O)=C(C(N)=O)C(=O)[C@@]3(O)C(O)=C1C2=O [minocycline, 7-dimethylamino-6-dimethyl-6-deoxytetracycline] | 200 | 200 | 
TIMP-1: 30 kD Tissue Inhibitor of Matrix Metalloproteinase, the most commonly expressed TIMP molecule |  |  | inhibition of interstitial collagenase (interstitial collagenase): better inhibitor of interstitial collagenase than TIMP-2
B1 |  |  | inhibition of gelatinase A (gelatinase A): inhibits; inhibition of gelatinase B (gelatinase B): inhibits; inhibition of collagenase 1 (collagenase 1): inhibits; inhibition of stromelysin (stromelysin): inhibits
